The target in assay [1] is human αvβ3 receptor (Homo sapiens, UniProt P05106+P06756). As to the kind of experiment: Bond displacement / binding competition test: Vitronectin/Vitronectin Receptor (αvβ3), plate assay. The settings on record: human vitronectin coated plates, 3 hours at ambient temperature, read-out: Binding competition test Vn/VR (αvβ3) IC50. The procedure:
Pharmacological Study of the Products of the Invention 1--Study by the Products of the Invention of the Bond Displacement: Vitronectin/Vitronectin Receptor (αvβ3) 96-well MaxiSorp plates are coated overnight at 4° C., with 100 μl of human Vitronectin (cf Yatohgo et al. Cell., Structure and fraction 13: 281-292 (1988)) at 2 μg/ml, (Dilution in coating buffer).
The next day, the wells are emptied and the ligands (Vitronectin) are then fixed (see fixation buffer) for 1 hour at ambient temperature under gentle agitation.
The wells are washed six times (see washing buffer), then the following are added per well and in this order:
40 μl of incubation buffer, 10 μl of the dilution of the product to be tested, (the products are diluted in a 50/50 mixture of DMSO-H2 O) 50 μl of human αvβ 3 receptor (cf Pytela et al. Methods Enzymol (1987) 144:475) (dilution in incubation buffer, adapted according to the batch of receptor and according to the ligand).
The ligand, the human αvβ3 receptor and the products to be studied are incubated for 3 hours at ambient temperature under gentle agitation.
The wells are again washed six times, then incubated for 2 hours at ambient temperature under gentle agitation, in the presence of 100 μl of 4B12-HRP antibody, anti-receptor coupled to a peroxidase (the 4B12-HRP antibody is diluted in incubation buffer. The dilution is adapted according to the batch of receptor).
The wells are then washed six times before measurement of ligand-receptor bond is carried out using a peroxidase developer kit (TMB Microwell Peroxidase Substrate System Kirkegaard: Ref. cat. 50-76-00).
This kit contains a flask A of substrate (3,3', 5,5'-tetramethylbenzidine at 0.4 g/l) and a flask B (H2 O2 at 0.02% in Citrate/Citric acid buffer). Extemporaneously, one volume of A is mixed with one volume of B, then the reaction mixture is distributed at the rate of 100 µl/well. The enzymatic reaction develops in 12' for Vitronectin/αvβ3, then its development is stopped by the addition of 100 μl of 1M phosphoric acid.
The optical density is measured at 450 nm. […]
coating buffer: 0.05 M Carbonate, NaOH pH 9.6 fixation buffer: PBS containing 0.5% of BSA (pH 7.4) washing buffer: PBS containing 0.05% of Tween 20 (pH 7.4)
The following curve is plotted: the percentage of bond of human vitronectin as a function of the logarithm of the concentration of each product tested.
For each product the IC50 is determined according to the following formula:
BO=Maximum bond in the absence of any product
Bmin=Minimum bond in the presence of the highest concentration of product.

The subject of assay [2] is bone resorption. The settings on record: Sato et al.; cited from earlier work.
For assay [3], the system named is bone resorption. The conditions noted are these: in vivo in the rat, Fisher et al.; cited from earlier work.
In assay [4] the test system is osteoclasts. The settings on record: cited from earlier work.

Counter-ions that a name gives are not always drawn.

On to `COc1c(SCCC(NC(=O)OCc2ccccc2)C(=O)O)cc2c(c1OC)C1=C(CCC1)C(=NNC1=NCCN1)CC2` (racemic) [Example 1, S-[4-[(4,5-dihydro-1H-imidazol-2-yl)hydrazono]-9,10-dimethoxy-1,2,3,4,5,6-hexahydro-8-benz[e]azulenyl]-N-[(phenylmethoxy)carbonyl]-DL-homocysteine], for which the IC50 in assay [1] is 40 nM.
For `O=C(NC(CCSc1ccc2c(c1)CCC(=NN=C1NCCN1)C1=C2CCC1)C(=O)O)OCc1ccccc1` (racemic) [Example 4, S-[4-[(2-imidazolidinylidene)hydrazono]-1,2,3,4,5,6-hexahydro-8-benz[e]azulenyl]-N-[(phenylmethoxy)carbonyl]-DL-homocysteine], in assay [1], the IC50 was 30 nM.
For `O=C(NC(CCS(=O)(=O)c1ccc2c(c1)CCC(=NNC1=NCCN1)C1=C2CCC1)C(=O)O)OCc1ccccc1` (stereo not shown) [Example 5, hydrochloride of 4-[[4-[(2-imidazoli-dinylidene)hydrazono]-1,2,3,4,5,6-hexahydro-8-benz[e]azulenyl]sulphonyl]-2-[[(phenylmethoxy)carbonyl]amino]-butanoic acid], the IC50 in assay [1] turned out to be 33 nM.
Still for that read-out and setting: in the case of `O=C(NC(CC[S+]([O-])c1ccc2c(c1)CCC(=NN=C1NCCN1)C1=C2CCC1)C(=O)O)OCc1ccccc1` (stereo not shown) [Example 6, 4-[[4-[(2-imidazolidinylidene)hydrazono]-1,2,3,4,5,6-hexahydro-8-benz[e]azulenyl]sulphinyl]-2-[[(phenylmethoxy)carbonyl]amino]-butanoic acid] it was 230 nM.
Regarding Echistatin, the “inhibition of bone resorption in tissues cultured in vitro” value in assay [2] is reported as “powerful inhibitor of bone resorption”. Also, the “inhibition of bone resorption in vivo” value in assay [3] is listed as “powerful inhibitor of bone resorption”. Moreover, in assay [4], the “inhibition of the adhesion of the osteoclasts to bone” value is reported as “inhibitor of the adhesion of the osteoclasts to bone”.

Values taken from patent US6277845A, “Hydrazono-benzazulene derivatives, pharmaceutical compositions and intermediates” (Aventis Pharma S.A., priority 1997, dated 2001).
